# Assay results from patent US20200016200A1, “MODULATING CYTOTOXIC CELL LYTIC GRANULE POSITIONING TO PROMOTE DIFFUSE KILLING IN CELLULAR THERAPIES” (Baylor College of Medicine, priority 2016, published 2020).
# Entries after “also recorded” stand apart in the source; their conditions may differ.
# Legend:
# eNK cells [1] = assay: Flow cytometry-based degranulation assay (CD107a); format: cell-based, human; details: eNK with K562 targets, 2 hours, vs DMSO
# Method: (§1) FIGS. 13A-13E. The effect of ciliobrevin D on degranulation and the increase of bystander killing by NK cells. Flow cytometry-based degranulation assay of NK cells treated with ciliobrevin D or DMSO as vehicle control. 721.221 cells were used as targets for YTS cells and K562 cells were used as targets for NK92 and eNK cells. DMSO or ciliobrevin D-treated NK cells were mixed with their respective target cells and co-cultured at 37° C. for 2 hours in the presence of anti-CD107a antibody, GolgiStop (BD) and analyzed using flow cytometry. Numbers in the representative flow cytometry plots indicate the percentage of CD107a positive eNK (13A), YTS (13B), or NK92 (13C) cells. Standard 4-hour 51Cr cytotoxicity assay of NK cells treated with ciliobrevin D (100 μM) or DMSO control. NK resistant Raji cells were used as innocent bystander cells. […] Bystander killing of Raji cells by YTS (13D, red) and NK92 (13E, red) cells both increased with ciliobrevin D treatment. Representative experiments from three independent experiments for YTS and NK92 cells were shown.
# (§2) YTS-CD16, NK92-CD16 and eNK cells were labeled with CellTrace CFSE for 10 min at room temperature. S2 and S2-IC1 cells were pre-incubated with anti-S2 polyclonal IgG antibody at a final dilution of 1:1000 for 30 min at room temperature and washed three times. S2, S2-IgG, S2-IC1 and S2-IC1-IgG cells were then labeled with cell proliferation dye eFluor 670 for 5 min at room temperature. […] and 2×10^5 target cells were mixed in 200 μl complete R10 and incubated for 2 hours at 37° C. in the presence of anti-CD107a antibody and GolgiStop (BD), fixed with 1% paraformaldehyde in PBS and analyzed as described in flow-based conjugation assay.
# (§3) Where applicable, YTS, NK92 and eNK cells were pretreated with […] ciliobrevin D (Millipore) for 30 min then washed. DMSO was used as the vehicle control for all inhibitor experiments. The inhibitor was also added into the co-culture with target cells.
# NK92 cells [2] = assay: Flow cytometry-based degranulation assay (CD107a); format: cell-based, human; details: NK92 with K562 targets, 2 hours, vs DMSO
# Method: as §1, §2, §3
# YTS cells [3] = assay: Flow cytometry-based degranulation assay (CD107a); format: cell-based, human; details: YTS with 721.221 targets, 2 hours, vs DMSO
# Method: as §1, §2, §3
# CD19 CAR-bearing T cells = assay: Live cell confocal microscopy of lytic granule positioning (LysoTracker Red); format: cell-based; details: for stimulation-induced lytic granule convergence: ciliobrevin D 50 μM vs DMSO, straight out of culture or 0.5 h post cytokine (IL-7, IL-15) re-addition
# Method: (§4) FIG. 17. […] Live cell confocal microscopy of CD19 CAR-bearing T cells untreated or treated with ciliobrevin D (30 and 100 μM). Lytic granule positioning was tracked using LysoTracker Red. […] Quantitative analyses of lytic granule distance from the MTOC are shown as a feature of the degree of granule convergence in CD19 CAR-bearing T cells.
# as §4, with “18.” for “17.”, “cells” for “cells untreated or”, “with DMSO or” for “with”, “(50” for “(30 and 100”, “Red. […] The culture medium for CD19 CAR T cells contains IL-7 and IL-15.” for “Red.”
# Specifically, the inventors have shown convergence in CD19 CAR T cells, CD19 CAR NK cells, PSCA CAR T cells, GD2 CAR NKT cells, HER2 CART cells, and glypican CAR T cells (FIG. 15A). Using a measurement of mean granule distance from the MTOC, CAR cells have varying degrees of converged lytic granules (FIG. 15B).
# eNK cells [4] = assay: Lytic granule convergence, fixed cell confocal microscopy (granule to MTOC distance); format: cell-based, human; details: eNK conjugated with K562 target cells; ciliobrevin D 100 μM vs vehicle
# Text: (§5) In previous studies, it was shown that granule convergence is dynein-dependent (Mentlik et al., 2010). To further characterize this, regarding the role for convergence in promoting killing efficiency and protecting bystanders, a small molecule dynein inhibitor ciliobrevin D (Firestone et al., 2012) was used to try and block the convergence of lytic granules to the MTOC from their dispersed localization in the cytoplasm. This would allow us to manipulate granule trafficking via blocking the motor protein function, instead of altering activating signal input. YTS, NK92 or eNK cells were treated with either ciliobrevin D or vehicle and conjugated with their respective target cells. […] As a separate measure of granule dispersion, the standard deviation of the granule to MTOC distance was calculated to show the degree of scatter of individual lytic granules. […] CD107a staining was additionally performed to test whether ciliobrevin D treatment affected the exocytosis of lytic granules; the proportion of eNK cells that degranulated after treatment with ciliobrevin D increased (FIG. 13A), whereas in the NK cell lines it decreased (FIG. 13B-13C). In all cases, however, degranulation still occurred in the presence of ciliobrevin D. […]
# (§6) Raw image sequences were analyzed using Volocity software. For lytic granules, the centroid of individual lytic granule was designated automatically based on the fluorescence intensity of the corresponding staining (LysoTracker Red or perforin) (Mentlik et al., 2010). For MTOC, in fixed-cell confocal experiments, the point with the highest fluorescence intensity of α-tubulin staining was denoted as the localization of MTOC; in live-cell experiments, the geometric centroid of all the lytic granules in the cell was used to provide a measure of proximity of lytic granule regions. Lytic granule convergence to the MTOC or to the centroid of all granules was measured as previously described (Mentlik et al., 2010). […]
# NK92 cells [5] = assay: as above; format: cell-based, human; details: NK92 conjugated with K562 target cells; ciliobrevin D 100 μM vs vehicle
# Text: as §5, §6
# YTS cells [6] = assay: as above; format: cell-based, human; details: YTS conjugated with 721.221 target cells; ciliobrevin D 100 μM vs vehicle
# Text: as §5, §6
smiles,measurement,setting,value
"N#CC(C(=O)c1ccc(Cl)cc1Cl)=C1NC(=O)c2ccc(Cl)cc2N1 [ciliobrevin D, 2-(7-chloro-4-oxo-3,4-dihydroquinazolin-2(1H)-ylidene)-3-(2,4-dichlorophenyl)-3-oxopropanenitrile]",proportion of cells that degranulated (CD107a positive),eNK cells [1],increased
same,proportion of cells that degranulated (CD107a positive),NK92 cells [2],decreased
same,proportion of cells that degranulated (CD107a positive),YTS cells [3],decreased
same,stimulation-induced lytic granule convergence,CD19 CAR-bearing T cells,blocks stimulation-induced convergence
same,stimulation-induced lytic granule convergence,CD19 CAR-bearing T cells; listed as Ciliobrevin D,dispersed lytic granules
same,lytic granule positioning (granule distance from the MTOC),CD19 CAR-bearing T cells; ciliobrevin D 30 and 100 μM vs untreated,can disperse lytic granules; also recorded: dispersed lytic granules
same,lytic granule convergence as determined by mean granule to MTOC distance,eNK cells [4],blocked lytic granule convergence
same,lytic granule convergence as determined by mean granule to MTOC distance,NK92 cells [5],blocked lytic granule convergence
same,lytic granule convergence as determined by mean granule to MTOC distance,YTS cells [6],blocked lytic granule convergence
